Results taken from PMC6792352, “Limited Chemical Structural Diversity Found to Modulate Thyroid Hormone Receptor in the Tox21 Chemical Library” (Environmental Health Perspectives, 2019).
Structures can show the parent of a compound that is named as a salt.

Test: in vitro
Settings: rat, gh3-tre-luc cells, AC50 (uM) modified / 1000
For `CCN(CC)CCCC(C)Nc1c2ccc(Cl)cc2nc2ccc(OC)cc12` (stereo not shown) [Quinacrine dihydrochloride dihydrate], the CC50 at 24 h was > 50 µM.
For `O=C[C@H](O)[C@H]1OC(=O)[C@@H](O)[C@H]1O` [D-Glucuronolactone], the CC50 at 24 h was > 90 µM.
For `CCOC(=O)COc1ccc2c(=O)cc(-c3ccccc3)oc2c1` [Efloxate], the CC50 at 24 h was > 50 µM.
Compound `O=C(Nc1ccc2c(O)c(N=Nc3ccc(N=Nc4ccc(S(=O)(=O)O)cc4)cc3)c(S(=O)(=O)O)cc2c1)c1ccccc1` [C.I. Direct Red 81 disodium salt] has a CC50 at 24 h of 35.6 µM.
For `CCCC1CCOC(C)S1` (stereo not shown) [2-Methyl-4-propyl-1,3-oxathiane], the CC50 at 24 h was > 90 µM.
Work on `O=CC=C(c1ccccc1)c1ccccc1` [3,3-Diphenylacrylaldehyde] yielded a CC50 at 24 h of 42.2 µM.
With `Cc1ccccc1CO[C@@H]1C[C@@]2(C(C)C)CC[C@]1(C)O2` (racemic) [Cinmethylin] the CC50 at 24 h was > 90 µM.
For `CCCCCCC1CCC(=O)O1` (stereo not shown) [gamma-Decanolactone], the CC50 at 24 h was > 90 µM.
With `CCC(=O)OCc1ccccc1` [Benzyl propanoate] the CC50 at 24 h was > 90 µM.
In the case of `O=C(c1ccccc1)C1(O)CCCCC1` [(1-Hydroxycyclohexyl)(phenyl)methanone], the CC50 at 24 h is reported as > 90 µM.
For `NC(=O)c1nc(-c2cccc(-c3cc(F)ccc3OCC(F)(F)C(F)(F)F)c2)n[nH]1` [MK-274], the CC50 at 24 h was 53.5 µM.
In the case of `CC1CCc2cc(F)cc3c(=O)c(C(=O)O)cn1c23` (stereo not shown) [Flumequine], the CC50 at 24 h is reported as > 50 µM.
In the case of `CC(C)c1ccccc1C(C)C` [Diisopropylbenzene], the CC50 at 24 h is reported as 88.9 µM.
In the case of `CC(C)(CO)COC(=O)C(C)(C)CO` [3-Hydroxy-2,2-dimethylpropyl 3-hydroxy-2,2-dimethylpropanoate], the CC50 at 24 h is reported as > 90 µM.
`CS/C(C)=N\OC(=O)N(C)SN(C)C(=O)O/N=C(\C)SC` [Thiodicarb] showed a CC50 at 24 h of 39.7 µM.
For `Cc1ncc([N+](=O)[O-])n1CC(C)O` (stereo not shown) [Secnidazole], the CC50 at 24 h was > 50 µM.
For `CCCC1CCC(=O)O1` (stereo not shown) [1,4-Heptanolide], the CC50 at 24 h was > 90 µM.
With `CCCCCc1cccc(=O)o1` [6-Pentyl-2H-pyran-2-one] the CC50 at 24 h was > 90 µM.
For `CC(=O)OCCC1CCCCC1` [2-Cyclohexylethyl acetate], the CC50 at 24 h was > 90 µM.
With `C=CC(C)(CCC=C(C)C)OC(=O)CC` (stereo not shown) [3,7-Dimethylocta-1,6-dien-3-yl propanoate] the CC50 at 24 h was > 90 µM.
With `CC(C)(C)CCCCCC(=O)O` [Neodecanoic acid] the CC50 at 24 h was > 90 µM.
For `CCCCCCCCCCCCCOP(=O)(O)O` [Monotridecyl phosphate], the CC50 at 24 h was > 90 µM.
In the case of `CCCCCCCCN(C)C` [N,N-Dimethyloctylamine], the CC50 at 24 h is reported as > 90 µM.
For `CN1C(C(=O)Nc2ccccn2)=C(O)c2sc(Cl)cc2S1(=O)=O` [Lornoxicam], the CC50 at 24 h was > 50 µM.
In the case of `O=C(Cl)CCl` [Chloroacetyl chloride], the CC50 at 24 h is reported as > 90 µM.
For `CCCC[P+](CCCC)(CCCC)CCCC` [Tetrabutylphosphonium bromide], the CC50 at 24 h was > 90 µM.
For `CCN1CCCC1CNC(=O)c1cc(S(N)(=O)=O)ccc1OC` (stereo not shown) [Sulpiride], the CC50 at 24 h was > 90 µM.
In the case of `COc1ccc(CCN(C)CCCN2CCc3cc(OC)c(OC)cc3CC2=O)cc1OC` [Zatebradine hydrochloride], the CC50 at 24 h is reported as > 50 µM.
For `CCCCNC(C)(C)[PH](=O)O` [Butafosfan], the CC50 at 24 h was > 50 µM.
In the case of `COc1ccc(NC(=O)CC(C)=O)cc1` [N-(4-Methoxyphenyl)-3-oxobutanamide], the CC50 at 24 h is reported as > 90 µM.
With `C=Cc1ccccc1C=C` [Divinylbenzene] the CC50 at 24 h was > 400 µM.
With `CC1OCCC1=O` (stereo not shown) [2-Methyldihydrofuran-3(2H)-one] the CC50 at 24 h was > 90 µM.
Compound `O[C@@H](c1cc(C(F)(F)F)nc2c(C(F)(F)F)cccc12)[C@H]1CCCCN1` [Mefloquine hydrochloride] has a CC50 at 24 h of 5.17 µM.
Work on `C=C[C@]1(C)C[C@@H](OC(=O)CSC(C)(C)CNC(=O)[C@H](N)C(C)C)[C@]2(C)[C@H](C)CC[C@]3(CCC(=O)[C@H]32)[C@@H](C)[C@@H]1O` [Valnemulin] yielded a CC50 at 24 h of 2.37 µM.
With `CC/C=C\CC/C=C/C(OCC)OCC` [(2E,6Z)-1,1-diethoxynona-2,6-diene] the CC50 at 24 h was > 90 µM.
With `Cc1cc(-c2ccccc2)nnc1NCCN1CCOCC1` [Minaprine dihydrochloride] the CC50 at 24 h was > 50 µM.
With `CC1(C)S[C@@H]2[C@H](NC(=O)C(C(=O)O)c3ccccc3)C(=O)N2[C@H]1C(=O)O` (stereo partly shown) [Carbenicillin disodium] the CC50 at 24 h was > 50 µM.
With `O=C1OC[C@@H](Cc2cccc(O)c2)[C@@H]1Cc1cccc(O)c1` [Enterolactone] the CC50 at 24 h was > 30 µM.
For `C1=CCC(c2ccccc2)CC1` (stereo not shown) [4-Phenyl-1-cyclohexene], the CC50 at 24 h was > 90 µM.
`CC[C@@H](C(=O)O)[C@@H]1O[C@@H]([C@@H](C)[C@H](O)[C@H](C)C(=O)[C@H](CC)[C@H]2O[C@]3(C=C[C@@H](O)[C@]4(CC[C@@](C)([C@H]5CC[C@](O)(CC)[C@H](C)O5)O4)O3)[C@H](C)C[C@@H]2C)[C@@H](C)C[C@@H]1C` [Narasin] gave a CC50 at 24 h of 0.153 µM.
In the case of `CO[Si](CCCn1c(=O)n(CCC[Si](OC)(OC)OC)c(=O)n(CCC[Si](OC)(OC)OC)c1=O)(OC)OC` [1,3,5-Tris[3-(trimethoxysilyl)propyl]-1,3,5-triazinane-2,4,6-trione], the CC50 at 24 h is reported as > 70 µM.
In the case of `CN(C)CCO` [Dimethylaminoethanol], the CC50 at 24 h is reported as > 90 µM.
In the case of `COC(=O)CCSCCC(=O)OC` [Dimethyl 3,3'-thiodipropionate], the CC50 at 24 h is reported as > 90 µM.
In the case of `CC1(C)S[C@@H]2[C@H](N3C(=O)[C@@H](c4ccccc4)NC3(C)C)C(=O)N2[C@H]1C(=O)O` [Hetacillin potassium], the CC50 at 24 h is reported as > 50 µM.
Compound `C[C@]12O[C@H](C[C@]1(O)CO)n1c3ccccc3c3c4c(c5c6ccccc6n2c5c31)CNC4=O` [Lestaurtinib] has a CC50 at 24 h of 0.226 µM.
With `CCN(CC)CCNC(=O)c1cc(S(C)(=O)=O)ccc1OC` [Tiapride hydrochloride] the CC50 at 24 h was > 20 µM.
With `CCOc1ccc([N+](=O)[O-])cc1` [1-Ethoxy-4-nitrobenzene] the CC50 at 24 h was 39.1 µM.
`O=C1C(I)=CC(=C(c2cc(I)c(O)c(I)c2)c2ccccc2C(=O)O)C=C1I` [Iodophthalein sodium] showed a CC50 at 24 h of 41.3 µM.
With `CC1(C)[C@H]2CC[C@]1(C)C(=O)C2` [Camphor] the CC50 at 24 h was > 90 µM.
With `Cc1ncc(CNC(=O)N(CCCl)N=O)c(N)n1` [Nimustine] the CC50 at 24 h was > 50 µM.
Work on `CCCCCCCCn1sc(Cl)c(Cl)c1=O` [4,5-Dichloro-2-octyl-3(2H)-isothiazolone] yielded a CC50 at 24 h of 12.7 µM.
With `CC(=O)c1ccc(Cl)c(Cl)c1Cl` [2',3',4'-Trichloroacetophenone] the CC50 at 24 h was > 90 µM.
For `COc1ccc(Cc2nccc3cc(OC)c(OC)cc23)cc1OC` [Papaverine hydrochloride], the CC50 at 24 h was > 20 µM.
For `COc1cnc(NS(=O)(=O)c2ccc(N)cc2)nc1` [Sulfameter], the CC50 at 24 h was > 20 µM.
In the case of `O=C(CCNNC(=O)c1ccncc1)NCc1ccccc1` [Nialamide], the CC50 at 24 h is reported as > 50 µM.
`Cc1cc(SCc2sc(-c3ccc(C(F)(F)F)c(F)c3)nc2C)ccc1OCC(=O)O` [{4-[({2-[3-Fluoro-4-(trifluoromethyl)phenyl]-4-methyl-1,3-thiazol-5-yl}methyl)sulfanyl]-2-methylphenoxy}acetic acid] showed a CC50 at 24 h of 64.8 µM.
`OC(c1ccc(Cl)cc1)(c1ccc(Cl)cc1)c1cccnc1` [Parinol] gave a CC50 at 24 h of 64.3 µM.
In the case of `CC(=O)OCC(=O)[C@H]1CC[C@H]2[C@@H]3CCC4=CC(=O)CC[C@]4(C)[C@H]3CC[C@]12C` [Deoxycorticosterone acetate], the CC50 at 24 h is reported as > 50 µM.
In the case of `Clc1ccc(C(Cn2ccnc2)OCc2csc3c(Cl)cccc23)c(Cl)c1` (stereo not shown) [Sertaconazole nitrate], the CC50 at 24 h is reported as 18.4 µM.
With `CC(=O)OCC(=O)[C@@]12OC(C)(C)O[C@@H]1C[C@H]1[C@@H]3C[C@H](F)C4=CC(=O)C=C[C@]4(C)[C@@]3(F)[C@@H](O)C[C@@]12C` [Fluocinonide] the CC50 at 24 h was > 20 µM.
In the case of `C[Si]1(C)O[Si](C)(C)O[Si](C)(C)O[Si](C)(C)O1` [Octamethylcyclotetrasiloxane], the CC50 at 24 h is reported as > 90 µM.
For `OCC(CO)N[C@H]1C[C@](O)(CO)[C@@H](O)[C@H](O)[C@H]1O` [Voglibose], the CC50 at 24 h was > 50 µM.
`CCCCc1ccc(O)cc1` [4-Butylphenol] gave a CC50 at 24 h of 92.9 µM.
In the case of `N[C@@H](CSSC[C@H](N)C(=O)O)C(=O)O` [L-Cystine], the CC50 at 24 h is reported as > 50 µM.
In the case of `O=C(NNCNNC(=O)c1ccncc1)c1ccncc1` [Metazide], the CC50 at 24 h is reported as > 50 µM.

Same assay, conditions: rat, gh3-tre-luc cells, AC50 (uM) modified / 1000, Tox21_110001=Tox21_111700; viability, 1 nM T3 present, 24 h
Compound `O=C(Nc1ccc(Br)cc1)c1cc(Br)cc(Br)c1O` [Tribromsalan] has a CC50 at 24 h of 14.2 µM.

Same assay, conditions: rat, gh3-tre-luc cells, AC50 (uM) modified / 1000, Tox21_110001=Tox21_113309; viability, 1 nM T3 present, 24 h
In the case of `COc1ccc2c(C(=O)c3ccc(Cl)cc3)c(C)n(CC(=O)O)c2c1` [Clometacine], the CC50 at 24 h is reported as > 50 µM.

Same assay, conditions: rat, gh3-tre-luc cells, AC50 (uM) modified / 1000, Tox21_110001=Tox21_113416; viability, 1 nM T3 present, 24 h
With `COP(=S)(OC)Oc1cc(Cl)c(Cl)cc1Cl` [Fenchlorphos] the CC50 at 24 h was > 50 µM.

Same assay, conditions: rat, gh3-tre-luc cells, AC50 (uM) modified / 1000, Tox21_110001=Tox21_113529; viability, 1 nM T3 present, 24 h
For `CC(N)Cc1ccc2c(c1)OCO2` (stereo not shown) [Tenamfetamine hydrochloride], the CC50 at 24 h was > 50 µM.

Same assay, conditions: rat, gh3-tre-luc cells, AC50 (uM) modified / 1000, Tox21_110001=Tox21_200566; viability, 1 nM T3 present, 24 h
In the case of `FC(Cl)(Cl)C(F)(Cl)Cl` [1,2-Difluoro-1,1,2,2-tetrachloroethane], the CC50 at 24 h is reported as > 100 µM.

Same assay, conditions: rat, gh3-tre-luc cells, AC50 (uM) modified / 1000, Tox21_110001=Tox21_202262; viability, 1 nM T3 present, 24 h
In the case of `OCC(O)CCl` (stereo not shown) [3-Chloro-1,2-propanediol], the CC50 at 24 h is reported as > 90 µM.

Same assay, conditions: rat, gh3-tre-luc cells, AC50 (uM) modified / 1000, Tox21_110001=Tox21_202438; viability, 1 nM T3 present, 24 h
With `O=[N+]([O-])c1ccc(Oc2ccc(Cl)cc2Cl)cc1` [Nitrofen] the CC50 at 24 h was > 90 µM.

Same assay, conditions: rat, gh3-tre-luc cells, AC50 (uM) modified / 1000, Tox21_110001=Tox21_202442; viability, 1 nM T3 present, 24 h
Compound `O=C(Nc1ccc(Br)cc1)c1cc(Br)cc(Br)c1O` [Tribromsalan] has a CC50 at 24 h of 5.41 µM.

Same assay, conditions: rat, gh3-tre-luc cells, AC50 (uM) modified / 1000, Tox21_110001=Tox21_301334; viability, 1 nM T3 present, 24 h
In the case of `COP(=S)(OC)Oc1cc(Cl)c(Cl)cc1Cl` [Fenchlorphos], the CC50 at 24 h is reported as > 90 µM.

Same assay, conditions: rat, gh3-tre-luc cells, AC50 (uM) modified / 1000, Tox21_110001=Tox21_302059; viability, 1 nM T3 present, 24 h
With `BrCCCCCCBr` [1,6-Dibromohexane] the CC50 at 24 h was > 90 µM.

Same assay, conditions: rat, gh3-tre-luc cells, AC50 (uM) modified / 1000, Tox21_110001=Tox21_303223; viability, 1 nM T3 present, 24 h
Work on `O=C(Nc1ccc(Br)cc1)c1cc(Br)cc(Br)c1O` [Tribromsalan] yielded a CC50 at 24 h of 6.43 µM.
